Source: patent US11684582B2, “Method for stabilizing humidity-sensitive pharmaceutical substance and stabilized preparation thereof” (Delta-Fly Pharma, Inc., priority 2021, dated 2023)

Tests used:
[1] = stability test in acceleration conditions (25° C./humidity 60%): appearance, purity and analogs by HPLC, water content, disintegration time, microbial content; assay type: physicochemical
[2] = system: cancer-bearing nude rats; settings: oral, versus TS-1; cited from earlier work
[3] = system: patients having a solid cancer; settings: phase-I trial, patients with solid cancer; cited from earlier work
[4] = bulk drug, 25° C./60% RH, after 3 months

CCOCn1cc(F)c(=O)n(C(=O)c2cccc(C(=O)Oc3cc(OC(=O)c4cc(OC(=O)CC)nc(OC(=O)CC)c4)c(Cl)cn3)c2)c1=O [DFP-11207]
stable period (specifications satisfied) ([1]; acceleration conditions (25° C./humidity 60%)): ≤ 3 months
Analog (% area): Analog-1 (RRT 0.42) [1, 4]: 0.18%
Analog (% area): Impurity 1 (RRT 0.49) [1, 4]: 0.73%
Analog (% area): Impurity 2 (RRT 0.74) [1, 4]: 2.13%
Analog (% area): Impurity 3 (RRT 0.83) [1, 4]: 0.49%
Analog (% area): Impurity 4 (RRT 1.13) [1, 4]: 0.86%
Analog (% area): Total impurities [1, 4]: 5.8%
Analog (% area): relative elution time 0.30 [1, 4]: 0.27%
Analog (% area): relative elution time 0.80 [1, 4]: 0.21%
Analog (% area): relative elution time 0.88 [1, 4]: 0.07%
Analog (% area): relative elution time 0.89 [1, 4]: 0.05%
Analog (% area): relative elution time 0.90 [1, 4]: 0.10%
Analog (% area): relative elution time 0.92 [1, 4]: 0.15%
Analog (% area): relative elution time 0.93 [1, 4]: 0.13%
Analog (% area): relative elution time 0.94 [1, 4]: 0.05%
Analog (% area): relative elution time 1.03 [1, 4]: 0.22%
Analog (% area): relative elution time 1.29 [1, 4]: 0.06%
Analog (% area): relative elution time 1.30 [1, 4]: 0.09%
Appearance [1, 4]: Grayish-white
Purity (% area) [1, 4]: 94.0%
Water content [1, 4]: 0.2%
Passing status: Appearance ([1]; bulk drug, 25° C./60% RH, after 3 months, specification Grayish-white to pale yellow): Passed
Passing status: Water content ([1]; bulk drug, 25° C./60% RH, after 3 months, specification ≤0.5%): Passed
Passing status: Analog, individual impurities ([1]; bulk drug, 25° C./60% RH, after 3 months, specification ≤1.0%): Not
Passing status: Total impurities ([1]; bulk drug, 25° C./60% RH, after 3 months, specification ≤4.0%): Not
therapeutic effects [2]: more excellent than TS-1
safety (serious gastrointestinal toxicity, reduced blood platelet count) [3]: none of serious gastrointestinal toxicity such as diarrhea and toxicity of reduced blood platelet count were observed
